The conditions of series [1]: cited from earlier work.
The conditions of series [2]: acidic environment; data not shown.

Where two headings read alike, the source gives them in different places.

For one molecule, Solubility results are on record in US11433072B1 (Hikma Pharmaceuticals USA Inc., priority 2021, dated 2022).

With `C=CC(=O)N1CCC[C@@H](n2nc(-c3ccc(Oc4ccccc4)cc3)c3c(N)ncnc32)C1` [ibrutinib, 1-(3R)-3-(4-amino-3-(4-phenoxyphenyl)-1H-pyrazolo[3,4-d]pryimidin-1-yl)prop-2-en-1-one], the Solubility entry is recorded as “slightly soluble” in series [1] (HCl at pH 1.2), “practically insoluble” in series [1] (aqueous solutions of pH 4.5-8) and “higher in an acidic environment” in series [2].
